Experimental data: patent US9663789B2, “PME-1 as a biomarker to predict and diagnose endometrial and breast cancer and gene silencing of PME-1 to inhibit epithelial to mesenchymal transition” (MEDICAL DIAGNOSTIC LABORATORIES, LLC, priority 2013, dated 2017)

Tests used:
Type in all cases: cell-based, human
PPME1 mRNA = test: qRT-PCR of PME-1 (PPME1) expression in RL95-2 cells; settings: RL95-2 cells stably expressing shRNA, vs shSCR
Description: Using RL95-2 endometrial cancer cells, we overexpressed PME-1 (FIG. 21A) or depleted PME-1 with shRNA targeted to PME-1 (SEQ ID NO: 2) (FIG. 21B) and confirmed that PME-1 was appropriately expressed.
Total RNA was extracted with Qiagen RNAEasy kit from RL95-2 cells. cDNA was synthesized using 500 ng-1 μg of RNA and SuperScript VILO c-DNA mix (Life Technologies). Taqman probes and PCR-mix were purchased from Life Technologies. All samples were run in triplicates. Results are representative of three independent experiments in which genes of interest were normalized to the house-keeping gene, 18S or GAPDH, where fold-change was calculated using the ddCt method.

PME-1 = test: Western blot of PME-1 protein in RL95-2 cells; settings: GAPDH loading control
Description: We prepared RL95-2 cell lines expressing empty vector (control), over-expressing PME-1 (+PME-1), or expressing shRNA against PPME1, the gene that codes for PME-1 protein (−PME-1). Using these cells, we confirmed the appropriate level of PME-1 via real-time RT-PCR (data not shown) and Western blot analysis (FIG. 8). GAPDH was used as a loading control.
We also prepared two different shRNAs targeted against PME-1.
(§1) 15 μg of protein was used for western analysis. PME-1 antibody (Santa Cruz) and COXIV (Cell Signaling Technologies) were used for detection of proteins and the blots were developed using chemiluminescence (Pierce ECL Western Blotting Substrate—Thermo Scientific) on the GE ImageQuant LAS 4000. For analysis of Akt, ERK, and β-catenin signaling in tissue culture, western analyses were completed as follows. RL95-2 cells stably infected with lentivirus expressing constructs were selected with puromycin (Invivogen). The cells were incubated with either 50 μM Akt inhibitor (LY 294002, Cell Signaling Technologies) or 40 μM ERK inhibitor (V0126, Cell Signaling Technologies) for 1-2 hours at 37° C. 1.5× Laemelli buffer (0.5 M Tris pH6.8, […], 10% sodium dodecyl sulfate, 100 mM EDTA) was used to prepare cell lysates. 20 μg of protein was used for western analysis. […]

RL95-2 cells [1] = test: BrDU incorporation assay, RL95-2 cells; settings: RL95-2, compared to scrambled shRNA control set to 100%
Description: To confirm our foci formation data that altering PME-1 levels in endometrial cancer cells affect their rate of cell proliferation, we conducted a BrDU incorporation assay. BrDU is incorporated into newly synthesized DNA and can be detected with antibodies; thus, increased BrDU incorporation correlates with an increased level of proliferation.
The BrDU Incorporation assay was completed with RL95-2 cell lines in media supplemented with 2.5 μg/ml puromycin. Cells were plated at 0.5×10^4 cells per well into a 96 well dish with 0% FBS and allowed to settle for 24 hours. The assay was completed as per kit instructions (Roche, Cell Proliferation ELISA, BrdU colorimetric cat. #11647229001). Briefly, 10 uM BrdU was added to the cells, 24 hours later cells were fixed and denatured with FixDenat from the kit and allowed to incubate with anti-BrdU antibody for up to two hours. Following the incubation and addition of the kit substrate, absorbances were read using FluoStar Galaxy.

RL95-2 cells [2] = test: Immunofluorescence of mitotic cells (phosphorylated histone H3 Ser10); settings: RL95-2, compared to control cells
Description: Endometrial cancer cells were stained for phosphorylated histone H3 on serine 10, a marker of mitotic cells, followed by counterstaining with DAPI (FIG. 12) to identify all cells.
For analysis of patient samples, tissues were blocked for 2 hours with 10% FBS in TBST for at RT, incubated with each primary antibody (together) overnight at 4° C., washed three times for 15 min in TBST, incubated with each secondary fluorescent antibody (together) for 1 hr at RT, washed again as above, stained with DAPI and mounted with cover-slips using vectashield mounting media (Vector Labs). Primary antibodies used were for PME-1 (Santa Cruz), E-cadherin (Millipore), and vimentin (Genscript). 1×10^3RL95-2 cells were plated on a chamber slide and were incubated overnight at 37° C. Slides were fixed with 4% paraformaldehyde (PFA) on ice for two hours. The cells were incubated with the primary antibody to Histone 3 (pH3) phosphorylated at Ser10 (1:200, Cell Signaling Technologies) overnight and developed with the secondary anti-rabbit Alexa-Fluor 555 antibody (Cell Signaling Technologies). DAPI was used as a nuclear counter-stain (Sigma Aldrich). Images were taken with the Nikon Eclipse TE2000 at 20×.

DcR2 = test: Senescence assay: Western blot for DcR2 in RL95-2 cells; settings: RL95-2 cell lysates
Description: We next analyzed cell lysates taken from RL95-2 cells that expressed either empty vector (Control), overexpressed PME-1 (+PME-1) or expressed shRNA against PME-1 (−PME-1) for DcR2 protein.
15 μg of protein was used for western analysis. PME-1 antibody (Santa Cruz) and COXIV (Cell Signaling Technologies) were used for detection of proteins and the blots were developed using chemiluminescence (Pierce ECL Western Blotting Substrate—Thermo Scientific) on the GE ImageQuant LAS 4000. For analysis of Akt, ERK, and β-catenin signaling in tissue culture, western analyses were completed as follows. RL95-2 cells stably infected with lentivirus expressing constructs were selected with puromycin (Invivogen). The cells were incubated with either 50 μM Akt inhibitor (LY 294002, Cell Signaling Technologies) or 40 μM ERK inhibitor (V0126, Cell Signaling Technologies) for 1-2 hours at 37° C. 1.5× Laemelli buffer (0.5 M Tris pH6.8, […], 10% sodium dodecyl sulfate, 100 mM EDTA) was used to prepare cell lysates. 20 μg of protein was used for western analysis. Primary antibodies used were: P-Akt (Ser473), P-Akt (Thr308), pan-Akt, P-ERK (Thr202/204), total ERK (Cell Signaling Technologies), PME-1 (Santa Cruz), phospho-β-catenin (Ser45, Cell Signaling Technologies), phospho-β-catenin (Ser33/37/Thr41, Cell Signaling Technologies), β-catenin (Abcam), DcR2 (Abcam), and GAPDH (Abcam). […]

RL95-2 cells [3] = test: Colony forming / invasive growth assay in Matrigel
Description: To determine if PME-1 contributes to the more invasive and metastatic phenotypes, we performed a colony forming assay in matrigel.
The 3D On Top Matrigel Assay was completed in 24 well dishes. Briefly, the bottoms of 24 well dishes were coated with 50 μl BD Matrigel Basement Matrix Phenol Red Free (BD Biosciences cat. #356237) and allowed to solidify at 37° C. 10^5 cells were suspended in 250 μl chilled medium containing either 10 ng/ml of TGF-b or vehicle and allowed to settle at 37° C. for 30 minutes. Chilled medium containing 10% of Matrigel was added by pipetting gently down the sidewall of the well and incubated at 37° C. for ten days changing top medium every second day. Colony counts were performed on the tenth day; averages were taken from three fields of view using a 10× objective. Experiment was repeated three times.

ERK = test: Western analysis of phospho-ERK in RL95-2 cells; settings: RL95-2, compared to control cells
Description: 15 μg of protein was used for western analysis. PME-1 antibody (Santa Cruz) and COXIV (Cell Signaling Technologies) were used for detection of proteins and the blots were developed using chemiluminescence (Pierce ECL Western Blotting Substrate—Thermo Scientific) on the GE ImageQuant LAS 4000. For analysis of Akt, ERK, and β-catenin signaling in tissue culture, western analyses were completed as follows. RL95-2 cells stably infected with lentivirus expressing constructs were selected with puromycin (Invivogen). The cells were incubated with either 50 μM Akt inhibitor (LY 294002, Cell Signaling Technologies) or 40 μM ERK inhibitor (V0126, Cell Signaling Technologies) for 1-2 hours at 37° C. 1.5× Laemelli buffer (0.5 M Tris pH6.8, […], 10% sodium dodecyl sulfate, 100 mM EDTA) was used to prepare cell lysates. 20 μg of protein was used for western analysis. Primary antibodies used were: P-Akt (Ser473), P-Akt (Thr308), pan-Akt, P-ERK (Thr202/204), total ERK (Cell Signaling Technologies), PME-1 (Santa Cruz), phospho-β-catenin (Ser45, Cell Signaling Technologies), phospho-β-catenin (Ser33/37/Thr41, Cell Signaling Technologies), β-catenin (Abcam), DcR2 (Abcam), and GAPDH (Abcam). All experiments were repeated several times with similar results.

Akt = test: Western analysis of phospho-Akt in RL95-2 cells; settings: RL95-2, PME-1 knocked down
Description: We observed a similar trend for the Akt signaling pathway. There was an increase in phosphorylation of Akt on threonine 308 (T308) when PME-1 was over-expressed compared to control. […] PME-1 over-expression specifically increases the phosphorylation of Akt on T308, but not serine 473 (S473).
as §1

## shRNA (SEQ ID NO: 2): lentiviral shRNA against PPME1, target sequence SEQ ID NO: 2 GCAGCGATTATTAGTAGAGTT, bp 289-309; hairpin SEQ ID NO: 8 (CCGGGCAGCGATTATTAGTAGAGTTCTCGAGAACTCTACTAATAATCGCTGCTTTTT; listed as Homo sapiens)
PPME1 mRNA
  PME-1 knocked down (qRT-PCR, normalized to 18S): > 50%
PME-1
  PME-1 levels by Western blot analysis: significantly decreased PME-1 levels
RL95-2 cells [1]
  decrease in BrDU incorporation: 40%
RL95-2 cells [2]
  decreased proliferation (phospho-histone H3 positive cells): ~30%
DcR2
  senescent marker protein DcR2 (Western): increase in the senescent marker protein, DcR2
RL95-2 cells [3]; RL95-2, −TGF-β, compared to control cells
  colony number and size in Matrigel: fewer and smaller colonies
RL95-2 cells [3]; RL95-2 in Matrigel, 10 days, vs control cells
  decrease in colony formation: 50%
ERK
  phospho-ERK (Western): decrease in phospho-ERK
Akt
  phosphorylation of Akt (Western): decrease in phosphorylation of Akt
